Values joined by “and” are separate entries in the source; they are usually repeats but may differ in a detail not shown here. Identical values can stand only once.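 Protocol summary: plate cells (96-well), add compound at 5 concentrations, incubate 48 h, interpolate endpoints linearly. At the GI50, growth is halved. At the TGI there is no net growth.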
How the values were obtained:
Test in all cases: DTP human tumour cell line panel, 48 h
SW-620 colon = system: SW-620 colon
NCI-H460 lung = system: NCI-H460 lung
SK-MEL-28 melanoma = system: SK-MEL-28 melanoma
HCT-15 colon = system: HCT-15 colon
OVCAR-4 ovarian = system: OVCAR-4 ovarian
SK-MEL-5 melanoma = system: SK-MEL-5 melanoma
UACC-257 melanoma = system: UACC-257 melanoma
NCI-H226 lung = system: NCI-H226 lung
SF-268 CNS = system: SF-268 CNS
NCI-H23 lung = system: NCI-H23 lung

| Compound | GI50 (SW-620 colon) | TGI (SW-620 colon) | GI50 (NCI-H460 lung) | TGI (NCI-H460 lung) | GI50 (SK-MEL-28 melanoma) | TGI (SK-MEL-28 melanoma) | GI50 (HCT-15 colon) | TGI (HCT-15 colon) | GI50 (OVCAR-4 ovarian) | TGI (OVCAR-4 ovarian) | GI50 (SK-MEL-5 melanoma) | TGI (SK-MEL-5 melanoma) | GI50 (UACC-257 melanoma) | TGI (UACC-257 melanoma) | GI50 (NCI-H226 lung) | TGI (NCI-H226 lung) | GI50 (SF-268 CNS) | TGI (SF-268 CNS) | GI50 (NCI-H23 lung) | TGI (NCI-H23 lung) |
| --- | --- | --- | --- | --- | --- | --- | --- | --- | --- | --- | --- | --- | --- | --- | --- | --- | --- | --- | --- | --- |
| CCCCCCCCCCCCOC1C(CNCC2OC3OC(C)(C)OC3C2NC(=O)Nc2ccc(C(=O)OCC)cc2)OC2OC(C)(C)OC21 (stereo not drawn) | 1750 nM | 3.29 µM | 2000 nM | 3.87 µM | 1970 nM | 4.3 µM | 2460 nM | 6.14 µM | 1870 nM | 4.25 µM | 2050 nM | 4.13 µM | 5.05 µM | 16.2 µM | 6230 nM | 22.7 µM | 1630 nM | 3.24 µM | 8340 nM | 21.5 µM |
| N#Cc1cnn2ccn(C3OC(COC(=O)c4ccccc4)C(OC(=O)c4ccccc4)C3OC(=O)c3ccccc3)c12 (stereo not drawn) |  | > 21.5 µM |  | > 21.5 µM |  | > 21.5 µM |  | > 21.5 µM |  | > 21.5 µM |  | > 21.5 µM |  | > 21.5 µM |  | > 21.5 µM |  | > 21.5 µM |  | > 21.5 µM |
| CCOc1ccc2nc(NC(=O)/C(CC(=O)CC(C3=C(O)c4ccccc4CC3=O)c3ccccc3)=N\O)sc2c1 (stereo not drawn) |  | > 100 µM |  | > 100 µM |  | > 100 µM |  | > 100 µM |  | > 100 µM |  | > 100 µM |  | > 100 µM |  | > 100 µM |  | > 100 µM |  | > 100 µM |
| CCN1CCN(c2nc(NCCNc3ccnc4cc(Cl)ccc34)c3ccccc3n2)CC1 | 707 nM | 5.14 µM | 1910 nM | 5.33 µM | 2040 nM | 3.81 µM | 1520 nM | 5.25 µM | 1780 nM | 4.45 µM | 1820 nM | 3.21 µM | 2.62 µM | 4.8 µM | 1820 nM | 4.05 µM | 2510 nM | 13.3 µM | 2770 nM | 10.7 µM |
| CN(C)c1ccc2c(c1)oc(=O)c1ccccc12 |  | 23.4 µM |  | 58 µM |  | 34.3 µM |  | 27 µM |  | 28.2 µM |  | 22.8 µM |  | 28.3 µM |  | 31.9 µM |  | 22.7 µM |  | 22.4 µM |
| CC1=C(CCCOC(=O)NCCCl)C2=C(C)C3(CC3)[C@@](C)(O)C(=O)C2=C1 | 24500 nM | > 100 µM | 2420 nM | 13.6 µM | 2630 nM | 8.03 µM | 2840 nM | > 100 µM | 2700 nM | > 100 µM | 1730 nM | 3.35 µM | 3.91 µM | > 100 µM | 2400 nM | 6.33 µM | 3070 nM | 51.7 µM | 1830 nM | 9.17 µM |
| CC(=O)c1ccc(N(/C=C/C(=O)C(F)(F)F)CC(=O)c2ccc(Cl)c(Cl)c2)cc1 | 18300 nM | 34.8 µM | 15600 nM | > 100 µM | 16500 nM | 40.7 µM | 13400 nM | 29.2 µM | 14000 nM | 33.4 µM | 17700 nM | 32.4 µM | 15.2 µM | 29.4 µM | 10900 nM | 27.3 µM | 14200 nM | 31.5 µM | 18000 nM | 35.6 µM |
| O=c1c(Cl)c(Cl)cnn1-c1ccccc1 | 2000 nM | 5.5 µM |  | 10.3 µM and 8.61 µM |  | 6.54 µM and 7.29 µM |  | 3.51 µM and 5.38 µM |  | 3.95 µM and 2.38 µM | 2420 nM and 7820 nM | 5.66 µM and 14.2 µM |  | 14.1 µM and 48.4 µM |  | 12.9 µM and 21.4 µM |  | 15.7 µM and 25.6 µM | 2040 nM and 5730 nM | 5.68 µM and 13.3 µM |
| O=c1[nH]c(=O)n(C2CC(O)C(CO)O2)cc1C#Cc1c(F)c(F)c(F)c(F)c1F (stereo not drawn) |  | > 100 µM |  | > 100 µM |  | > 100 µM |  | > 100 µM |  | > 100 µM |  | > 100 µM |  | > 100 µM |  | > 100 µM |  | > 100 µM |  | > 100 µM |
| COc1cccc(-c2nn(-c3ccccc3)cc2-c2ccnc(NCCCNS(=O)(=O)c3cccc(F)c3)c2)c1 | 5540 nM | > 100 µM | 4930 nM | > 100 µM | 6820 nM | > 100 µM | 2890 nM | > 100 µM | 3280 nM | > 100 µM | 1860 nM | 3.77 µM | 5.12 µM | 39.3 µM | 6750 nM | > 100 µM | 5630 nM | > 100 µM | 4470 nM | > 100 µM |
| Cc1cccc(C(C)(C)C)c1NC(=O)C(=O)Cc1nc2ccccc2s1 |  | > 100 µM |  | > 100 µM |  | > 100 µM |  | > 100 µM |  | > 100 µM |  | > 100 µM |  | > 100 µM |  | > 100 µM |  | > 100 µM |  | > 100 µM |
| CC[n+]1ccc2c(c1)C(=O)c1nccc3c1c-2nc1ccccc13 | 1100 nM | 11.5 µM | 120 nM | 2.65 µM | 1840 nM | 7.64 µM | 2860 nM | > 33.3 µM | 941 nM | 4.1 µM | 1350 nM | 5.54 µM | 3.42 µM | 9.06 µM | 1130 nM | 5.51 µM | 340 nM | 3.63 µM | 280 nM | 2.64 µM |
| OC(c1cccc(C(F)(F)F)c1)c1cnccc1NC1CCCCCC1 (stereo not drawn) | 1720 nM | 3.37 µM | 1840 nM | 3.57 µM | 1730 nM | 3.24 µM | 1810 nM | 3.54 µM | 1830 nM | 6.33 µM | 1610 nM | 3.04 µM | 2.36 µM | 4.66 µM | 2760 nM | 16.6 µM | 3290 nM | 13.8 µM | 1850 nM | 5.39 µM |
| N#Cc1c(O)c2c(c(O)c1C#N)C(=O)c1ccccc1C2=O | 2500 nM | 7.55 µM | 1040 nM | > 33.8 µM | 1060 nM | 3.58 µM | 2320 nM | > 28.1 µM | 1430 nM | 3.79 µM | 282 nM | 1.14 µM | 1.57 µM | 4.82 µM | 2830 nM | 25.3 µM | 2800 nM | 16 µM | 621 nM | 2.7 µM |
| O=C(O/N=C1/CCC/C1=C\c1ccccc1)c1ccc([N+](=O)[O-])cc1 |  | > 100 µM |  | > 100 µM |  | > 100 µM |  | > 100 µM |  | > 100 µM |  | > 100 µM |  | > 100 µM |  | > 100 µM |  | > 100 µM |  | > 100 µM |

Reference: PubChem BioAssay (NCI)
